These results are taken from the NIST ThermoML archive (doi:10.1016/j.fluid.2005.03.016).

The conditions of the series: Liquid, Closed cell (Static) method.

Values joined by “and” are separate entries in the source; they are usually repeats but may differ in a detail not shown here. Equal entries are not always repeated. ± gives the expanded uncertainty stated by the source.

The vapor or sublimation pressure is the equilibrium pressure above the liquid or solid.

Take `CC(C)(C)O` [2-methylpropan-2-ol]: the “vapor or sublimation pressure” value (313.08 K) was determined as 13.77 ± 0.41 kPa.

Consider `CC(C)C` [2-methylpropane], for which the “vapor or sublimation pressure” value (313.06 K) is recorded as 529.65 ± 2.3 kPa; the “vapor or sublimation pressure” value (313.08 K) is 530.05 ± 2.4 kPa and 529.95 ± 2.4 kPa; the “vapor or sublimation pressure” value (313.1 K) is recorded as 529.95 ± 2.4 kPa; the “vapor or sublimation pressure” value (313.12 K) was determined as 530.75 ± 2.3 kPa.

Regarding `CCC(C)O` (centres undefined) [butan-2-ol], under “313.1 K”, the “vapor or sublimation pressure” value is given as 5.97 ± 0.4 kPa.

Turning to `CCO` [ethanol], the “vapor or sublimation pressure” value (313.07 K) is 17.77 ± 0.41 kPa.

`CO` [methanol]: the “vapor or sublimation pressure” value (313.07 K) is given as 35.27 ± 0.43 kPa.

In the case of `CC(C)O` [propan-2-ol], under “313.11 K”, the “vapor or sublimation pressure” value was 13.77 ± 0.41 kPa.
